Molecular target: T1, Brd4 bromodomain 1 (Homo sapiens, UniProt O60885)
T1 construct: made in house; host or cells: E. coli BL21(DE3)
Assay: Inhibition of binding of tetra-acetylated histone H4 to Brd4 bromodomain 1 (TR-FRET)
Settings: His-tagged Brd4 bromodomain 1 200 nM, tetra-acetylated histone H4 peptide 25-50 nM, 2 hours room temperature
Procedure: Proteins were cloned and overexpressed with a N-terminal 6×His tag, then purified by nickel affinity followed by size exclusion chromatography. Briefly, E. coli BL21(DE3) cells were transformed with a recombinant expression vector encoding N-terminally Nickel affinity tagged bromodomains from Brd2, Brd3, Brd4. Cell cultures were incubated at 37° C. with shaking to the appropriate density and induced overnight with IPTG. The supernatant of lysed cells was loaded onto Ni-IDA column for purification. Eluted protein was pooled, concentrated and further purified by size exclusion chromatography. Fractions representing monomeric protein were pooled, concentrated, aliquoted, and frozen at −80° C. for use in subsequent experiments.
For inhibition assays, serially diluted test compound was added to these reactions in a 0.2% final concentration of DMSO. Final buffer concentrations were 30 mM HEPES pH 7.4, 30 mM NaCl, 0.3 mM CHAPS, 20 mM phosphate pH 7.0, 320 mM KF, 0.08% BSA). […] The binding inhibitory activity was shown by a decrease in 665 nm fluorescence relative to 620 nm. IC50 values were determined from a dose response curve.

| SMILES | FRET activity (<50 uM) |
| --- | --- |
| COc1cc(OC)c2c(=O)[nH]c(-c3ccc(N4CCN(C(=O)c5cc(Cl)sc5Cl)CC4)cc3)nc2c1 [Example 27, 2-(4-(4-(2,5-Dichlorothiophene-3-carbonyl)piperazin-1-yl)phenyl)-5,7-dimethoxyquinazolin-4(3H)-one] | Active |
| COCCOc1cc(OC)cc2nc(-c3cc(C)nc(C)c3)[nH]c(=O)c12 [Example 105, 2-(2,6-Dimethylpyridin-4-yl)-7-methoxy-5-(2-methoxyethoxy)quinazolin-4(3H)-one] | Active |
| COc1cc(OC)c2c(=O)[nH]c(-c3ccc(N4C[C@@H](C)N(C(C)=O)[C@@H](C)C4)cc3)nc2n1 [Example 7, 2-(4-((3R,5S)-4-Acetyl-3,5-dimethylpiperazin-1-yl)phenyl)-5,7-dimethoxypyrido[2,3-d]pyrimidin-4(3H)-one] | Active |
| O=c1[nH]c(-c2ccc(N3CCN(CC(F)(F)F)CC3)cc2)nc2ccccc12 [Example 31, 2-(4-(4-(2,2,2-Trifluoroethyl)piperazin-1-yl)phenyl)quinazolin-4(3H)-one] | Inactive |
| CC(C)N1CCN(c2ccc(-c3nc4cccc(Cl)c4c(=O)[nH]3)cc2)CC1 [Example 41, 5-Chloro-2-(4-(4-isopropylpiperazin-1-yl)phenyl)quinazolin-4(3H)-one] | Inactive |
| COc1cccc(-c2nc3cc(OC)cc(OC)c3c(=O)[nH]2)c1 [Example 116, 5,7-Dimethoxy-2-(3-methoxyphenyl)quinazolin-4(3H)-one] | Inactive |
| COc1cc(OC)c2c(=O)[nH]c(-c3ccc(NS(C)(=O)=O)cc3)nc2c1 [Example 59, N-(4-(5,7-Dimethoxy-4-oxo-3,4-dihydroquinazolin-2-yl)phenyl)methanesulfonamide] | Active |
| COc1cc(OC)c2c(=O)[nH]c(-c3ccc(N4CCC(=O)CC4)cc3)nc2n1 [Example 52, 5,7-Dimethoxy-2-(4-(4-oxopiperidin-1-yl)phenyl)pyrido[2,3-d]pyrimidin-4(3H)-one] | Inactive |
| Cc1cc(-c2nc3nc(OC(C)C)cc(OC(C)C)c3c(=O)[nH]2)cc(C)c1OCCN1CCCC1 [Example 91, 2-(3,5-Dimethyl-4-(2-(pyrrolidin-1-yl)ethoxy)phenyl)-5,7-diisopropoxypyrido[2,3-d]pyrimidin-4(3H)-one] | Inactive |
| COc1cc(OC)c2c(=O)[nH]c(-c3ccc(N4CCN(C=O)CC4)cc3)nc2c1 [Example 51, 4-(4-(5,7-Dimethoxy-4-oxo-3,4-dihydroquinazolin-2-yl)phenyl)piperazine-1-carbaldehyde] | Active |
| COc1cc(OC)c2c(=O)[nH]c(-c3cc(C)c(OCCN4C(=O)CCC4=O)c(C)c3)nc2c1 [Example 97, 1-(2-(4-(5,7-Dimethoxy-4-oxo-3,4-dihydroquinazolin-2-yl)-2,6-dimethylphenoxy)ethyl)pyrrolidine-2,5-dione] | Active |
| COc1cc(OC)c2c(=O)[nH]c(-c3ccc(N4CCN(C(=O)c5ccc(F)cc5)CC4)cc3)nc2c1 [Example 19, 2-(4-(4-(4-Fluorobenzoyl)piperazin-1-yl)phenyl)-5,7-dimethoxyquinazolin-4(3H)-one] | Inactive |
| COc1cc(OCCOC(C)C)c2c(=O)[nH]c(-c3cc(C)nc(C)c3)nc2c1 [Example 6, 2-(2,6-dimethylpyridin-4-yl)-5-(2-isopropoxyethoxy)-7-methoxyquinazolin-4(3H)-one] | Active |
| COc1cc(OC)c2c(=O)[nH]c(-c3cc(C)c(OCCN4Cc5ccccc5C4)c(C)c3)nc2c1 [Example 65, 2-(4-(2-(Isoindolin-2-yl)ethoxy)-3,5-dimethylphenyl)-5,7-dimethoxyquinazolin-4(3H)-one] | Active |
| COc1cc(OC)c2c(=O)[nH]c(-c3ccc(N4C[C@@H](C)N[C@@H](C)C4)cc3)nc2c1 [Example 37, 2-(4-((3R,5S)-3,5-Dimethylpiperazin-1-yl)phenyl)-5,7-dimethoxyquinazolin-4(3H)-one] | Active |
| Cc1cc(-c2nc3cc(F)cc(F)c3c(=O)[nH]2)cc(C)c1OCCN1CCCC1 [Example 85, 2-(3,5-Dimethyl-4-(2-(pyrrolidin-1-yl)ethoxy)phenyl)-5,7-difluoroquinazolin-4(3H)-one] | Inactive |
| COc1cc(OC)c2c(=O)[nH]c(-c3ccc(N4CCN(C(=O)c5cnn(C)c5Cl)CC4)cc3)nc2c1 [Example 25, 2-(4-(4-(5-Chloro-1-methyl-1H-pyrazole-4-carbonyl)piperazin-1-yl)phenyl)-5,7-dimethoxyquinazolin-4(3H)-one] | Inactive |
| COc1cc(OC)c2c(=O)[nH]c(-c3ccc(N4CCN(C(=O)c5ccccn5)CC4)cc3)nc2c1 [Example 21, 5,7-Dimethoxy-2-(4-(4-picolinoylpiperazin-1-yl)phenyl)quinazolin-4(3H)-one] | Active |
| COc1cc(OC)c2c(=O)[nH]c(-c3ccc(N4CCN(C(=O)c5cccnc5)CC4)cc3)nc2c1 [Example 22, 5,7-Dimethoxy-2-(4-(4-nicotinoylpiperazin-1-yl)phenyl)quinazolin-4(3H)-one] | Active |
| COc1cc(OC)c2c(=O)[nH]c(-c3ccc4[nH]c(CCO)cc4c3)nc2c1 [Example 54, 2-(2-(2-Hydroxyethyl)-1H-indol-5-yl)-5,7-dimethoxyquinazolin-4(3H)-one] | Active |
| COc1cc(OC)c2c(=O)[nH]c(-c3ccc4[nH]c(CN(C)C)cc4c3)nc2c1 [Example 58, 2-(2-((Dimethylamino)methyl)-1H-indol-5-yl)-5,7-dimethoxyquinazolin-4(3H)-one] | Active |
| COc1cc(OC)c2c(=O)[nH]c(-c3ccc(Nc4cccnc4)cc3)nc2c1 [Example 62, 5,7-Dimethoxy-2-(4-(pyridin-3-ylamino)phenyl)quinazolin-4(3H)-one] | Active |
| COc1cc(OC)c2c(=O)[nH]c(-c3cc(C)c(OCCCN4CCCC4)c(C)c3)nc2c1 [Example 75, 2-(3,5-Dimethyl-4-(3-(pyrrolidin-1-yl)propoxy)phenyl)-5,7-dimethoxyquinazolin-4(3H)-one] | Active |

The next lines start with the values.

| FRET activity (<50 uM) | SMILES |
| --- | --- |
| Active | COc1cc(OC)c2c(=O)[nH]c(-c3ccc(N4CCNCC4)cc3)nc2c1 [Example 12, 5,7-Dimethoxy-2-(4-(piperazin-1-yl)phenyl)quinazolin-4(3H)-one] |
| Active | COc1cc(OC)c2c(=O)[nH]c(-c3ccc(C4CCN(C(C)=O)CC4)cc3)nc2c1 [Example 3, 2-(4-(1-acetylpiperidin-4-yl)phenyl)-5,7-dimethoxyquinazolin-4(3H)-one] |
| Inactive | COc1cc(OC)c2c(=O)[nH]c(-c3ccc(N4CCN(Cc5ccccc5)CC4)cc3)nc2c1 [Example 30, 2-(4-(4-Benzylpiperazin-1-yl)phenyl)-5,7-dimethoxyquinazolin-4(3H)-one] |
| Active | COc1cc(OC)c2c(=O)[nH]c(-c3ccc(N4CCCN(C(C)=O)CC4)cc3)nc2c1 [Example 32, 2-(4-(4-Acetyl-1,4-diazepan-1-yl)phenyl)-5,7-dimethoxyquinazolin-4(3H)-one] |
| Active | COc1cc(OC)c2c(=O)[nH]c(-c3ccc(N4CCC(NC(C)=O)C4)cc3)nc2c1 (centres unmarked) [Example 39, N-(1-(4-(5,7-Dimethoxy-4-oxo-3,4-dihydroquinazolin-2-yl)phenyl)pyrrolidin-3-yl)acetamide] |
| Active | COc1cc(OC)c2c(=O)[nH]c(-c3ccc(N4CCN(C(=O)C(C)C)CC4)cc3)nc2c1 [Example 17, 2-(4-(4-Isobutyrylpiperazin-1-yl)phenyl)-5,7-dimethoxyquinazolin-4(3H)-one] |
| Active | COc1cc(OC)c2c(=O)[nH]c(-c3ccc(CN4CCN(C(C)C)CC4)cc3)nc2c1 [Example 93, 2-(4-((4-Isopropylpiperazin-1-yl)methyl)phenyl)-5,7-dimethoxyquinazolin-4(3H)-one] |
| Inactive | COc1cc(OC)c2c(=O)[nH]c(-c3ccc(N4CCC(N(C(C)=O)C(C)C)CC4)cc3)nc2c1 [Example 40, N-(1-(4-(5,7-dimethoxy-4-oxo-3,4-dihydroquinazolin-2-yl)phenyl)piperidin-4-yl)-N-isopropylacetamide] |
| Active | COc1cc(OC)c2c(=O)[nH]c(-c3ccc(N4CCCNCC4)cc3)nc2c1 [Example 33, 2-(4-(1,4-Diazepan-1-yl)phenyl)-5,7-dimethoxyquinazolin-4(3H)-one] |
| Active | COc1cc(OC)c2c(=O)[nH]c(-c3ccc(CN4CCC(NC(C)C)CC4)cc3)nc2c1 [Example 95, 2-(4-((4-(Isopropylamino)piperidin-1-yl)methyl)phenyl)-5,7-dimethoxyquinazolin-4(3H)-one] |
| Active | COc1cc(OC)c2c(=O)[nH]c(-c3ccc(N4CCC(NCc5ccccc5)CC4)nc3)nc2c1 [Example 50, 2-(6-(4-(Benzylamino)piperidin-1-yl)pyridin-3-yl)-5,7-dimethoxyquinazolin-4(3H)-one] |
| Inactive | COc1cc(OC)c2c(=O)[nH]c(-c3ccc(N4CCN(Cc5ccc(F)cc5)CC4)cc3)nc2c1 [Example 29, 2-(4-(4-(4-Fluorobenzyl)piperazin-1-yl)phenyl)-5,7-dimethoxyquinazolin-4(3H)-one] |

Source: patent US20130281399A1, “TREATMENT OF DISEASES BY EPIGENETIC REGULATION” (RVX Therapeutics Inc., priority 2012, published 2013)
